Laboratory results published in patent US20040224943A1, “Method of lowering body temperature with (R) - 2,3-benzodiazepines” (priority 2003, published 2004).

Experiments:
[1] = system: mice; assay: Stress Induced Hyperthermia (SIH) assay; format: in vivo; conditions: for lowering the core body temperature: 64 mg/kg intraperitoneally 60 minutes before T1, at both T1 and T2
Protocol: In this assay, two successive temperature measurements are performed, the first, a basal measurement and the second, a measurement of a stress-enhanced temperature. The difference between the two measurements (delta T) is compared in animals treated with a test compound versus animals treated with vehicle alone to determine the test compound's activity in lowering body temperature. […] Besides the effect of drugs on the stress-enhanced temperature (T2), this test also directly measures intrinsic effects of drugs on the core body temperature (T1). Thus a test compound that reduces T2 and thus yields a lower delta T has utility in therapies that are directed to lowering the body temperature of an individual, such as perimenopause and menopause.
Mice, individually housed overnight, were subjected to two sequential rectal temperature measurements ten minutes apart. The first measurement is the basal temperature (T1), the second one the stress-enhanced temperature (T2). The difference (delta T) is the stress-induced hyperthermia. See, Van der Heyden et al., “Stress-induced hyperthermia in singly housed mice,” Physiology and Behavior, 463-470, (1997).
Test animals (group housed mice) were assigned to five groups of ten animals each. The test groups were dosed according to Table 2 below.
The test animals were isolated in an experimental room approximately one hour before lights off on the day before the test. On the day of testing, animals were taken quietly from the cage, held in a supine position, the rectal temperature was measured and the animal was placed back into the cage. The same procedure was repeated 10 minutes later. The first temperature (T1), the second temperature (T2) and the difference (delta T) were recorded. The test compounds were administered intraperitonealy 60 minutes before T1, in order to prevent the stress of being injected from affecting the temperature measurements.

[2] = system: mice; conditions: cited from earlier work
[3] = system: mice; conditions: reported in U.S. Pat. No. 4,322,346; cited from earlier work
[4] = system: rats; conditions: cited from earlier work
[5] = system: lymphocyte; conditions: in vitro, cited from earlier work
[6] = target: peripheral BZ receptors (Homo sapiens, UniProt P30536); conditions: cited from earlier work
[7] = system: central BZ receptors; conditions: cited from earlier work

Chain of peripheral BZ receptors (P30536 whole entry): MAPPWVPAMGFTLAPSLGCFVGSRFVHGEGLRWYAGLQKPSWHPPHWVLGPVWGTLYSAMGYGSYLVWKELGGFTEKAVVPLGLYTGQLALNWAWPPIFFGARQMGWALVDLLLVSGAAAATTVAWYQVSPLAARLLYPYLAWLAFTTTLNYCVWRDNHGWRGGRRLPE

Row | SMILES | lowering the core body temperature [1] | inhibition of aggression [2] | inhibition of muricide [4] | other results
1 | CC[C@H]1C(C)=NN=C(c2ccc(OC)c(OC)c2)c2cc(OC)c(OC)cc21 [(R)-tofisopam, (R)-1-(3,4-dimethoxyphenyl)-4-methyl-5-ethyl-7,8-dimethoxy-5H-2,3-benzodiazepine] | demonstrated therapeutic activity | – | – | sedation, abnormal gait, ptosis, muscle tone, lacrimation, reactivity to touch ([1]; 64 mg/kg intraperitoneally, compared with (S)-enantiomer or racemate): less sedation, abnormal gait, or ptosis, decreased muscle tone, decreased lacrimation, or decreased reactivity to touch
2 | CCC1C(C)=NN=C(c2ccc(O)c(OC)c2)c2cc(OC)c(OC)cc21 (stereo not drawn) [Compound 3, 1-(3-methoxy-4-hydroxyphenyl)-4-methyl-5-ethyl-7,8-dimethoxy-5H-2,3-benzodiazepine] | – | 0% | 0% | narcosis-potentiating activity [3]: narcosis-potentiating activity
3 | CCC1C(C)=NN=C(c2ccc(O)c(OC)c2)c2cc(OC)c(O)cc21 (stereo not drawn) [Compound 5, 1-(3-methoxy-4-hydroxyphenyl)-4-methyl-5-ethyl-7-hydroxy-8-methoxy-5H-2,3-benzodiazepine] | – | 28.6% | 20% | –
4 | CCC1C(C)=NN=C(c2ccc(OC)c(OC)c2)c2cc(OC)c(O)cc21 (stereo not drawn) [Compound 1, 1-(3,4-dimethoxyphenyl)-4-methyl-5-ethyl-7-hydroxy-8-methoxy-5H-2,3-benzodiazepine] | – | 0% | 20% | –
5 | CC[C@@H]1C(C)=NN=C(c2ccc(OC)c(OC)c2)c2cc(OC)c(OC)cc21 [(S)-tofisopam, (S)-1-(3,4-dimethoxyphenyl)-4-methyl-5-ethyl-7,8-dimethoxy-5H-2,3-benzodiazepine] | more active than either the racemate or the (R)-enantiomer | – | – | –
6 | CCC1C(C)=NN=C(c2ccc(OC)c(OC)c2)c2cc(OC)c(OC)cc21 (racemic) [tofisopam] | demonstrates activity in lowering the core body temperature | – | – | IL-2 production ([5]; mitogen-induced): enhances; mitogen-induced lymphocyte proliferation [5]: enhances; binding to peripheral BZ receptors [6]: binds only weakly; interaction with central BZ receptors [7]: does not interact
